This note sets out measurements from ChEMBL document CHEMBL1158172, “Preparation and antibacterial activity of cyclic 2',3'-carbamate derivatives of azithromycin” (Eur J Med Chem, 2008).

The structures appear in SMILES notation. Activity calls are given as the source filed them. The calls are words filed in the database; no cut-off is given here.

One experiment concerns Staphylococcus aureus. The experiment is described as follows: Antibacterial activity against Staphylococcus aureus ATCC 25923. It is filed as functional, organism-based.
The subject of a further experiment is Escherichia coli. The experiment is described as follows: Antibacterial activity against Escherichia coli ATCC 25922. Type of experiment: functional, organism-based.

As for `CC[C@H]1OC(=O)[C@H](C)[C@@H](O[C@H]2C[C@@](C)(OC)[C@@H](O)[C@H](C)O2)[C@H](C)[C@@H](O[C@@H]2O[C@H](C)C[C@H]3[C@H]2OC(=O)N3C)[C@](C)(O)C[C@@H](C)CN[C@H](C)[C@@H]2OC(=O)O[C@]12C`, the outcome with Staphylococcus aureus and in the experiment on Escherichia coli was inactive.

On to `CC[C@H]1OC(=O)[C@H](C)[C@@H](O[C@H]2C[C@@](C)(OC)[C@@H](O)[C@H](C)O2)[C@H](C)[C@@H](O[C@@H]2O[C@H](C)C[C@H]3[C@H]2OC(=O)N3C)[C@](C)(O)C[C@@H](C)CN(C)[C@H](C)[C@@H]2OC(=O)O[C@]12C`, for which the result in the experiment on Staphylococcus aureus and with Escherichia coli was inactive.
